# Patent US10493118B2, “Triterpenoid obtainable from hedera helix for treatment of neurodegenerative diseases” (Macau University of Science and Technology, priority 2016, dated 2019)
# pIC50: −log10 of the molar value.
# Columns and labels:
# LC3-II = assay: Western blot of LC3-II in ATG7+/+ and ATG7−/− MEFs; assay type: cell-based, mouse; conditions: 24 h
# From the text: (§1) Protein extraction and Western blots: Cells were harvested by RIPA lysis buffer (Cell Signaling Technologies, Beverly, Mass., USA), and with the final protein concentrations measured by using Bradford reagent (Bio-Rad, Hercules, Calif., USA). After electrophoresis for protein band separation, proteins were transferred to the nitrocellulose membrane which was blocked with 5% non-fat dried milk immediately after protein transfer. Corresponding primary antibodies, followed by the addition of HRP-conjugated secondary antibodies, were incubated with the protein membrane with constant shaking. Visualization of protein band pattern was performed by using the ECL Western Blotting Detection Reagents (Invitrogen, Paisley, Scotland). Band intensities were quantified by using the software, ImageJ (ImageJ 1.46r; National Institutes of Health, Bethesda, Md., USA).
# [1] = system: α-synuclein oligomerization; assay: Bimolecular fluorescence complementation (BiFC) assay of α-synuclein oligomerization in HeLa cells; assay type: cell-based; conditions: for oligomerization of α-syn (GFP fluorescence intensity): transfected HeLa cells, hederagenin 40 or 80 μM, α-hederin 12 or 24 μM, 24 h
# Description: Bimolecular Fluorescence Complementation (BiFC) Assay: Both (1) non-fluorescent GFP-N terminal (GFP-N-α-syn), or (2) non-fluorescent GFP-C terminal (GFP-C-α-syn) plasmids were generous gifts from Pamela J. McLean (Department of Neuroscience, Mayo Clinic Florida, Jacksonville, Fla., USA). HeLa cells transfected with both GFP-N-α-syn and GFP-C-α-syn plasmids were incubated at 37° C. for 4 h. Cells were then subjected to different concentration of hederagenin or α-hederin treatments for a further 24 h in a humidified incubator at […] (Outeiro, T. F. et al., PLoS One 2008, 3:e1867). Green fluorescent signal which indicates the reconstitution of complete GFP proteins was detected by flow analysis (BD FACSAria III, San Jose, Calif., USA).
# [2] = system: GFP-LC3 transfected PC-12 cells; assay: GFP-LC3 autophagic puncta formation by fluorescence microscopy; assay type: cell-based; conditions: for percentage of cells with GFP-LC3 puncta formation with addition of 3-MA: 60 μM hederagenin or 18 μM α-hederin with 5 mM 3-MA for 24 h; for formation of GFP-LC3 puncta with AMPK inhibitor compound C (CC): 60 μM hederagenin or 18 μM α-hederin with 5 mM CC for 24 h; for formation of fluorescent LC3 II puncta: PC-12 cells, hederagenin 20-80 μM, α-hederin 6-24 μM, 4-24 h
# Description: Firstly, cells were plated on top of coverslips inside a 6-well culture dish. After compound treatment, cells were fixed with 4% paraformaldehyde for 20 min. FluorSave™ mounting media (Calbiochem, San Diego, Calif., USA) was used to mount the coverslips with cells before subjected to fluorescence microscopic analysis. The number of GFP-positive cells, and cells with GFP-LC3 puncta formation were examined and counted under the Nikon ECLIPSE 80i microscope by using 40× of magnification. In order to standardize the quantitation, the percentage of cells with autophagy induction was defined by counting the number of cells with increased punctate GFP-LC3 fluorescence in GFP-positive cells. A minimum of 1000 GFP-positive cells from 3 randomly selected fields were scored.
# Firstly, cells were plated on top of coverslips inside a 6-well culture dish. After compounds treatments, cells were fixed with 4% paraformaldehyde for 20 min. FluorSave™ mounting media (Calbiochem, San Diego, Calif., USA) was used to mount the coverslips with cells before subjected to fluorescence microscopic analysis. The number of GFP-positive cells, and cells with GFP-LC3 puncta formation was examined and counted under the Nikon ECLIPSE 80i microscope by using 40× of magnification. In order to standardize the quantitation, the percentage of cells with autophagy induction was defined by counting the number of cells with punctate GFP-LC3 fluorescence in GFP-positive cells. A minimum of 1000 GFP-positive cells from 3 randomly selected fields were scored.
# PC-12 cells = assay: MTT cytotoxicity assay in PC-12 cells; assay type: cell-based; conditions: for pIC50: MTT assay for 48 h
# Description: (§2) Cytotoxicity Assays: Cell viability was measured by using the MTT method (3-[4,5-dimethylthiazol-2-yl]-2,5-diphenyl tetrazolium bromide) as described previously (Wu, A. G. et al. Int J Mol Sci 2013, 14:22618-22641). Absorbance (OD) of cell samples was obtained by spectrophotometer at 570 nm. The percentage of cell viability was calculated by using the formula: cell viability (%)=cells numbertreated/cells numberDMSO control×100. All MTT data were calculated from three independent experiments.
# as §2, with “experiments. Cell viability was also measured by flow cytometry using the Annexin V staining kit (BD Biosciences, San Jose, Calif., USA).” for “experiments.”
# Cytotoxicity Assays and Flow Cytometry: Cell viability was measured by using the MTT method (3-[4,5-dimethylthiazol-2-yl]-2,5-diphenyl tetrazolium bromide) as described previously (Wu, A. G. et al. Int J Mol Sci 2013, 14:22618-22641). Absorbance (OD) of cell samples was obtained by spectrophotometer at 570 nm. The percentage of cell viability was calculated by using the formula: cell viability (%)=cells numbertreated/cells numberDMSO control×100. All MTT data were calculated from three independent experiments. Cell viability was also measured by flow cytometry using the Annexin V staining kit (BD Biosciences, San Jose, Calif., USA). In brief, PC-12 cells treated with hederagenin and α-hederin were analyzed by multiparametric flow cytometry using FITC-Annexin V and/or propidium iodide staining (BD Biosciences, San Jose, Calif., USA) by following manufacturer's instructions. Flow cytometry was then carried out using a FACSCalibur flow cytometer (BD Biosciences). […]
# p-AMPK = assay: Western blot of AMPK phosphorylation; assay type: cell-based; conditions: hederagenin 0-80 μM, α-hederin 0-24 μM, 24 h
# From the text: as §1
# [3] = system: EGFP-HTT 74 (mutant huntingtin); assay: Mutant huntingtin (EGFP-HTT 74) clearance and inclusion formation in ATG7+/+ and ATG7−/− MEFs; assay type: cell-based, mouse; conditions: 24 h; for percentage of cells with fluorescence mutant huntingtin inclusion formation: ATG7−/− compared with ATG7+/+ MEFs after treatment; for inclusion clearance of overexpressed mutant huntingtin in ATG7+/+ MEFs: EGFP-HTT 74 transfected ATG7+/+ MEFs
# From the text: as §1
# Cells were then treated with either hederagenin or α-hederin for a further 24 h to determine the protein level of mutant huntingtin by Western blot analysis using an antibody against GFP (Ravikumar, B. et al., Nat Genet 2004, 36:585-595). On the other hand, ATG7 wild-type and ATG7-deficient MEF cells transfected with EGFP-HTT 74 were analyzed for the formation of huntingtin inclusion after 24 h of hederagenin or α-hederin treatment. Percentages of cells with cytoplasmic GFP-huntingtin (GFP-HTT74) inclusion formation were counted by the number of cells with GFP inclusions over the total number of GFP-positive cells in the same field under fluorescent microscopic analysis. More than 200 GFP-positive cells were scored for each treatment.
# [4] = system: PC-12 cells treated with 0.5 mM MPTP; assay: Rescue from MPTP-induced cell death in PC-12 cells (MTT, Annexin V flow cytometry); assay type: cell-based; conditions: cell density, MTT assay and flow cytometry
# Description: Cytotoxicity Assays and Flow Cytometry: Cell viability was measured by using the MTT method (3-[4,5-dimethylthiazol-2-yl]-2,5-diphenyl tetrazolium bromide) as described previously (Wu, A. G. et al. Int J Mol Sci 2013, 14:22618-22641). Absorbance (OD) of cell samples was obtained by spectrophotometer at 570 nm. The percentage of cell viability was calculated by using the formula: cell viability (%)=cells numbertreated/cells numberDMSO control×100. All MTT data were calculated from three independent experiments. Cell viability was also measured by flow cytometry using the Annexin V staining kit (BD Biosciences, San Jose, Calif., USA). In brief, PC-12 cells treated with hederagenin and α-hederin were analyzed by multiparametric flow cytometry using FITC-Annexin V and/or propidium iodide staining (BD Biosciences, San Jose, Calif., USA) by following manufacturer's instructions. Flow cytometry was then carried out using a FACSCalibur flow cytometer (BD Biosciences). Data acquisition and analysis were performed with CellQuest (BD Biosciences).
# p-p70S6K = assay: Western blot of p70S6K phosphorylation (downstream target of mTOR); assay type: cell-based; conditions: hederagenin 0-80 μM, α-hederin 0-24 μM, 24 h
# From the text: as §1
SMILES,protein expression of LC3-II in ATG7+/+ MEFs (LC3-II),"inhibition of α-syn oligomerization relative to α-hederin ([1]; BiFC assay, HeLa cells)",oligomerization of α-syn (GFP fluorescence intensity) [1],percentage of cells with GFP-LC3 puncta formation with addition of 3-MA [2],formation of GFP-LC3 puncta with AMPK inhibitor compound C (CC) [2],formation of fluorescent LC3 II puncta [2],pIC50 (PC-12 cells; Rattus norvegicus),phosphorylation of AMPK (p-AMPK),percentage of cells with fluorescence mutant huntingtin inclusion formation [3],inclusion clearance of overexpressed mutant huntingtin in ATG7+/+ MEFs [3],rescue from MPTP-induced cell death [4],phosphorylation of p70S6K (p-p70S6K),pIC50 (PC-12 cells),"cytotoxicity at most effective concentration (PC-12 cells; hederagenin 80 μM, α-hederin 24 μM)"
CC1(C)CC[C@]2(C(=O)O)CC[C@]3(C)C(=CC[C@@H]4[C@@]5(C)CC[C@H](O)[C@@](C)(CO)[C@@H]5CC[C@]43C)[C@@H]2C1 [hederagenin],significant increased protein expression of LC3-II,more potent in the inhibition,inhibit the oligomerization of α-syn,decreases the rate of autophagy,significant reduction,increased formation of fluorescent LC3 II puncta,< 4.00,increased phosphorylation of AMPK,higher percentage of cells with fluorescence mutant huntingtin inclusion formation was found in ATG−/− MEFs,facilitate the inclusion clearance of overexpressed mutant huntingtin,rescue cells from MPTP-induced cell death,reduced phosphorylation of p70S6K,,
C[C@@H]1O[C@@H](O[C@H]2[C@H](O[C@H]3CC[C@@]4(C)[C@@H](CC[C@]5(C)[C@@H]4CC=C4[C@@H]6CC(C)(C)CC[C@]6(C(=O)O)CC[C@]45C)[C@]3(C)CO)OC[C@H](O)[C@@H]2O)[C@H](O)[C@H](O)[C@H]1O [α-hederin],significant increased protein expression of LC3-II,,inhibit the oligomerization of α-syn,decreases the rate of autophagy,significant reduction,increased formation of fluorescent LC3 II puncta,,increased phosphorylation of AMPK,higher percentage of cells with fluorescence mutant huntingtin inclusion formation was found in ATG−/− MEFs,facilitate the inclusion clearance of overexpressed mutant huntingtin,rescue cells from MPTP-induced cell death,reduced phosphorylation of p70S6K,4.58,lack of obvious cytotoxicity
